From ChEMBL document CHEMBL4837192, “The Bisindole Alkaloids Angustilongines M and A from Alstonia penangiana Induce Mitochondrial Apoptosis and G0/G1 Cell Cycle Arrest in HT-29 Cells through Promotion of Tubulin Polymerization” (J Nat Prod, 2021)
Calls of active or inactive are those of the source. No cut-off for these calls is given here.

Tests used:
[1] = tested on: HT-29; assay: Antiproliferative activity against human HT-29 cells cultured as 3D spheroids assessed as inhibition of spheroid formation measured after 48 hrs by MTT assay; assay type: functional, cell-based; details: HT-29, 48 h
[2] = Selectivity index, ratio of IC50 for human CCD-18Co cells to IC50 for human HT-29 cells assessed as cell growth inhibition measured after 48 hrs by MTT assay
[3] = tested on: A549; assay: Cytotoxicity against human A549 cells assessed as cell growth inhibition measured after 72 hrs by MTT assay; assay type: functional, cell-based; details: A549, 72 h
[4] = tested on: MDA-MB-231; assay: Cytotoxicity against human MDA-MB-231 cells assessed as cell growth inhibition measured after 72 hrs by MTT assay; assay type: functional, cell-based; details: MDA-MB-231, 72 h
[5] = tested on: HCT-116; assay: Cytotoxicity against human HCT-116 cells assessed as cell growth inhibition measured after 72 hrs by MTT assay; assay type: functional, cell-based; details: HCT-116, 72 h
[6] = tested on: HT-29; assay: Anticlonogenic activity against human HT-29 cells assessed as inhibition of colony formation measured after 6 days by methylene blue staining based assay; assay type: functional, cell-based; details: dose 1.35-2.7 µM, time 6.0 day
[7] = tested on: HT-29; assay: Induction of apoptosis in human HT-29 cells assessed as early apoptotic cells at 2.7 uM measured after 24 hrs by FITC-annexin V/propidium iodide- double staining based flow cytometry analysis (Rvb= 12.8%); assay type: functional
[8] = tested on: HT-29; assay: Induction of apoptosis in human HT-29 cells assessed as activation of caspase-3 at 2.7 uM measured after 72 hrs by flow cytometry analysis (Rvb= 2.2%); assay type: functional
[9] = tested on: HT-29; assay: Induction of apoptosis in human HT-29 cells assessed as dead cells at 2.7 uM measured after 72 hrs by FITC-annexin V/propidium iodide- double staining based flow cytometry analysis (Rvb= 0.4%); assay type: functional
[10] = tested on: HT-29; assay: Induction of apoptosis in human HT-29 cells assessed as early apoptotic cells at 2.7 uM measured after 48 hrs by FITC-annexin V/propidium iodide- double staining based flow cytometry analysis (Rvb= 12.8%); assay type: functional
[11] = tested on: HT-29; assay: Induction of cell cycle arrest in human HT-29 cells assessed as accumulation of cells at G2 phase at 2.7 uM measured after 24 hrs by propidium iodide staining based flow cytometry analysis (Rvb= 9.09%); assay type: functional
[12] = molecular target: Tubulin (Homo sapiens) (UniProt P68371+Q9H4B7+P0DPH7+P68366+Q13509+Q71U36+P04350+Q3ZCM7+P07437+P68363+Q9BQE3+Q6PEY2+Q13885+Q9BVA1+Q9BUF5); assay: Induction of tubulin polymerization in human HT-29 cells assessed as stabilization of microtubules at 10 uM by spectrophotometric analysis; assay type: cell-based
[13] = tested on: HT-29; assay: Induction of apoptosis in human HT-29 cells assessed as late apoptotic cells at 2.7 uM measured after 24 hrs by FITC-annexin V/propidium iodide- double staining based flow cytometry analysis (Rvb= 3.0%); assay type: functional
[14] = tested on: HT-29; assay: Induction of cell cycle arrest in human HT-29 cells assessed as accumulation of cells at G2 phase at 2.7 uM measured after 48 hrs by propidium iodide staining based flow cytometry analysis (Rvb= 9.09%); assay type: functional
[15] = tested on: MCF7; assay: Cytotoxicity against human MCF7 cells assessed as cell growth inhibition measured after 72 hrs by MTT assay; assay type: functional, cell-based; details: MCF7, 72 h
[16] = tested on: HT-29; assay: Induction of apoptosis in human HT-29 cells assessed as viable cells at 2.7 uM measured after 48 hrs by FITC-annexin V/propidium iodide- double staining based flow cytometry analysis (Rvb= 83.8%); assay type: functional; details: read-out: Activity
[17] = tested on: HT-29; assay: Induction of mitochondrial membrane potential loss in human HT-29 cells assessed as healthy cells at 2.7 uM measured after 24 hrs by JC-1 staining based flow cytometry analysis (Rvb= 91.4%); assay type: functional
[18] = tested on: HT-29; assay: Induction of apoptosis in human HT-29 cells assessed as activation of caspase-3 at 2.7 uM measured after 24 hrs by flow cytometry analysis (Rvb= 2.2%); assay type: functional
[19] = tested on: HT-29; assay: Induction of mitochondrial membrane potential loss in human HT-29 cells assessed as healthy cells at 2.7 uM measured after 72 hrs by JC-1 staining based flow cytometry analysis (Rvb= 91.4%); assay type: functional
[20] = tested on: HT-29; assay: Antiproliferative activity in human HT-29 cells cultured as 3D spheroids assessed as gradual disaggregation of peripheral cells at IC50 measured after 48 hrs; assay type: functional, cell-based
[21] = tested on: HT-29; assay: Induction of mitochondrial membrane potential loss in human HT-29 cells assessed as apoptotic cells at 2.7 uM measured after 72 hrs by JC-1 staining based flow cytometry analysis (Rvb= 8.6%); assay type: functional
[22] = tested on: HT-29; assay: Cytotoxicity against human HT-29 cells assessed as cell growth inhibition measured after 72 hrs by MTT assay; assay type: functional, cell-based; details: HT-29, 72 h
[23] = tested on: HT-29; assay: Induction of mitochondrial membrane potential loss in human HT-29 cells assessed as apoptotic cells at 2.7 uM measured after 48 hrs by JC-1 staining based flow cytometry analysis (Rvb= 8.6%); assay type: functional
[24] = tested on: HT-29; assay: Induction of cell cycle arrest in human HT-29 cells assessed as accumulation of cells at G1 phase at 2.7 uM measured after 24 hrs by propidium iodide staining based flow cytometry analysis (Rvb= 55.39%); assay type: functional
[25] = tested on: HT-29; assay: Induction of cell cycle arrest in human HT-29 cells assessed as accumulation of cells at S phase at 2.7 uM measured after 72 hrs by propidium iodide staining based flow cytometry analysis (Rvb= 35.52%); assay type: functional
[26] = tested on: HT-29; assay: Induction of apoptosis in human HT-29 cells assessed as viable cells at 2.7 uM measured after 72 hrs by FITC-annexin V/propidium iodide- double staining based flow cytometry analysis (Rvb= 83.8%); assay type: functional; details: read-out: Activity
[27] = tested on: HT-29; assay: Induction of mitochondrial membrane potential loss in human HT-29 cells assessed as healthy cells at 2.7 uM measured after 48 hrs by JC-1 staining based flow cytometry analysis (Rvb= 91.4%); assay type: functional
[28] = tested on: KB; assay: Cytotoxicity against human vincristine-sensitive KB cells assessed as cell growth inhibition measured after 72 hrs by MTT assay; assay type: functional, cell-based
[29] = tested on: CCD-18Co; assay: Cytotoxicity against human CCD-18Co cells assessed as cell growth inhibition measured after 72 hrs by MTT assay; assay type: cell-based
[30] = tested on: HT-29; assay: Induction of cell cycle arrest in human HT-29 cells assessed as accumulation of cells at G1 phase at 2.7 uM measured after 48 hrs by propidium iodide staining based flow cytometry analysis (Rvb= 55.39%); assay type: functional
[31] = tested on: HT-29; assay: Induction of apoptosis in human HT-29 cells assessed as dead cells at 2.7 uM measured after 48 hrs by FITC-annexin V/propidium iodide- double staining based flow cytometry analysis (Rvb= 0.4%); assay type: functional
[32] = tested on: KB; assay: Cytotoxicity against human vincristine-resistant KB cells assessed as cell growth inhibition measured after 72 hrs by MTT assay; assay type: functional, cell-based
[33] = tested on: HT-29; assay: Induction of apoptosis in human HT-29 cells assessed as early apoptotic cells at 2.7 uM measured after 72 hrs by FITC-annexin V/propidium iodide- double staining based flow cytometry analysis (Rvb= 12.8%); assay type: functional
[34] = tested on: HT-29; assay: Antiproliferative activity in human HT-29 cells cultured as 3D spheroids assessed as reduction in 3D structure of spheroid morphology at IC50 measured after 48 hrs; assay type: functional, cell-based
[35] = tested on: HT-29; assay: Cytotoxicity against human HT-29 cells assessed as cell growth inhibition measured after 48 hrs by MTT assay; assay type: functional, cell-based; details: HT-29, 48 h
[36] = tested on: HT-29; assay: Induction of apoptosis in human HT-29 cells assessed as viable cells at 2.7 uM measured after 24 hrs by FITC-annexin V/propidium iodide- double staining based flow cytometry analysis (Rvb= 83.8%); assay type: functional; details: read-out: Activity
[37] = tested on: HT-29; assay: Induction of mitochondrial membrane potential loss in human HT-29 cells assessed as apoptotic cells at 2.7 uM measured after 24 hrs by JC-1 staining based flow cytometry analysis (Rvb= 8.6%); assay type: functional
[38] = tested on: HT-29; assay: Induction of apoptosis in human HT-29 cells assessed as activation of caspase-3 at 2.7 uM measured after 48 hrs by flow cytometry analysis (Rvb= 2.2%); assay type: functional
[39] = tested on: HT-29; assay: Induction of cell cycle arrest in human HT-29 cells assessed as accumulation of cells at G1 phase at 2.7 uM measured after 72 hrs by propidium iodide staining based flow cytometry analysis (Rvb= 55.39%); assay type: functional
[40] = tested on: PC-3; assay: Cytotoxicity against human PC-3 cells assessed as cell growth inhibition measured after 72 hrs by MTT assay; assay type: functional, cell-based; details: PC-3, 72 h
[41] = tested on: HT-29; assay: Induction of apoptosis in human HT-29 cells assessed as dead cells at 2.7 uM measured after 24 hrs by FITC-annexin V/propidium iodide- double staining based flow cytometry analysis (Rvb= 0.4%); assay type: functional
[42] = tested on: HT-29; assay: Induction of cell cycle arrest in human HT-29 cells assessed as accumulation of cells at S phase at 2.7 uM measured after 48 hrs by propidium iodide staining based flow cytometry analysis (Rvb= 35.52%); assay type: functional
[43] = tested on: HT-29; assay: Induction of cell cycle arrest in human HT-29 cells assessed as accumulation of cells at S phase at 2.7 uM measured after 24 hrs by propidium iodide staining based flow cytometry analysis (Rvb= 35.52%); assay type: functional
[44] = tested on: CCD-18Co; assay: Cytotoxicity against human CCD-18Co cells assessed as cell growth inhibition measured after 48 hrs by MTT assay; assay type: cell-based
[45] = tested on: HT-29; assay: Induction of apoptosis in human HT-29 cells assessed as late apoptotic cells at 2.7 uM measured after 48 hrs by FITC-annexin V/propidium iodide- double staining based flow cytometry analysis (Rvb= 3.0%); assay type: functional
[46] = tested on: HT-29; assay: Induction of cell cycle arrest in human HT-29 cells assessed as accumulation of cells at G2 phase at 2.7 uM measured after 72 hrs by propidium iodide staining based flow cytometry analysis (Rvb= 9.09%); assay type: functional
[47] = tested on: HT-29; assay: Induction of apoptosis in human HT-29 cells assessed as late apoptotic cells at 2.7 uM measured after 72 hrs by FITC-annexin V/propidium iodide- double staining based flow cytometry analysis (Rvb= 3.0%); assay type: functional

SMILES: O=c1[nH]cc(F)c(=O)[nH]1 [FLUOROURACIL]
- IC50 [1]: 25.9 µM

SMILES: C/C=C1/CN2[C@H]3C[C@@H]1[C@@H](CO)[C@@H]2Cc1c3n(C)c2ccc3c(c12)[C@H](C)[C@@H]1[C@@H](OC[C@@H]2[C@H]1C[C@H]1c4c(c5ccccc5n4C)C[C@@H]2N1C)O3
- Ratio IC50 [2]: 5.32
- IC50 [3]: 2100 nM
- IC50 [4]: 5.9 µM
- IC50 [5]: 4.7 µM
- Activity [6]: Dose-Dependent Effect
- Activity [7]: 8.7%
- Activity [8]: 67.8%
- Activity [9]: 0.4%
- Activity [10]: 32%
- Activity [11]: 14.56%
- Activity [12]: Active
- Activity [13]: 12.8%
- Activity [14]: 12.12%
- IC50 [15]: > 10 µM
- viability at 2.7 µM [16]: 60.8%
- Activity [17]: 90.9%
- Activity [18]: 1.9%
- Activity [19]: 36.6%
- Activity [20]: Active
- Activity [21]: 63.4%
- IC50 [22]: 200 nM
- Activity [23]: 36.1%
- Activity [24]: 65.56%
- Activity [25]: 24.39%
- viability at 2.7 µM [26]: 17.7%
- Activity [27]: 63.9%
- IC50 [28]: 5 µM
- IC50 [29]: > 10 µM
- Activity [30]: 66.11%
- Activity [31]: 0.1%
- IC50 [32]: 7.6 µM
- Activity [33]: 40.3%
- Activity [34]: Active
- IC50 [35]: 2700 nM
- viability at 2.7 µM [36]: 77.6%
- Activity [37]: 9.1%
- Activity [38]: 26%
- Activity [39]: 67.94%
- IC50 [40]: 6.1 µM
- Activity [41]: 0.9%
- Activity [42]: 21.76%
- Activity [43]: 19.88%
- IC50 [44]: 14.1 µM
- Activity [45]: 7.1%
- IC50 [1]: 3.8 µM
- Activity [46]: 7.67%
- Activity [47]: 41.6%
